Data reported in ChEMBL document CHEMBL1201862, “PubChem BioAssay data set” (2004).
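Tested at 5 concentrations; 48 h exposure; 96-well plates; endpoints linearly interpolated, else capped at highest concentration. The concentration for 50% growth inhibition is given as GI50.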 Calls of active or inactive are those of the source. No stated cut-off is given here; in the data, active = GI50 up to about 1.1 µM and inactive = higher.

Legend:
Assay in all cases: DTP human tumour cell line panel, 48 h
SK-MEL-2 = system: SK-MEL-2
NCI-H460 = system: NCI-H460
U-251 = system: U-251
A549 = system: A549
Malme-3M = system: Malme-3M
HCT-15 = system: HCT-15
DMS-114 = system: DMS-114
OVCAR-3 = system: OVCAR-3
786-0 = system: 786-0
HCT-116 = system: HCT-116
ACHN = system: ACHN
COLO 205 = system: COLO 205
SW-620 = system: SW-620
RPMI-8226 = system: RPMI-8226
K562 = system: K562
OVCAR-8 = system: OVCAR-8
Hs-578T = system: Hs-578T
NCI/ADR-RES = system: NCI/ADR-RES
PC-3 = system: PC-3
MDA-MB-231 = system: MDA-MB-231

SMILES	GI50 (SK-MEL-2)	GI50 (NCI-H460)	GI50 (U-251)	GI50 (A549)	GI50 (Malme-3M)	GI50 (HCT-15) [µM]	GI50 (DMS-114)	GI50 (OVCAR-3)	GI50 (786-0)	GI50 (HCT-116)	GI50 (ACHN)	GI50 (COLO 205)	GI50 (SW-620)	GI50 (RPMI-8226)	GI50 (K562)	GI50 (OVCAR-8)	GI50 (Hs-578T)	GI50 (NCI/ADR-RES)	GI50 (PC-3)	GI50 (MDA-MB-231)
O=C(O)c1ccc(S(=O)(=O)c2ccccc2)c([N+](=O)[O-])c1	> 100 µM (inactive)	> 100 µM (inactive)	> 100 µM (inactive)	> 100 µM (inactive)	> 100 µM (inactive)	93.1	> 100 µM (inactive)	> 100 µM (inactive)	> 100 µM (inactive)	> 100 µM (inactive)	> 100 µM (inactive)	> 100 µM (inactive)	> 100 µM (inactive)	> 100 µM (inactive)	> 100 µM (inactive)					
Oc1cc(C2OCCCO2)cc(O)c1O	> 100 µM (inactive)	> 100 µM (inactive)	> 100 µM (inactive)	> 100 µM (inactive)	> 100 µM (inactive)	> 100	> 100 µM (inactive)	> 100 µM (inactive)	> 100 µM (inactive)	> 100 µM (inactive)	> 100 µM (inactive)	> 100 µM (inactive)	> 100 µM (inactive)	> 100 µM (inactive)	> 100 µM (inactive)	> 100 µM (inactive)				
CC(=O)NC(CC(C)C)C(=O)NC(Cc1ccccc1)C(=S)N1CCCC1 (stereo unspecified)	> 100 µM (inactive)	> 100 µM (inactive)	> 100 µM (inactive)	> 100 µM (inactive)	> 100 µM (inactive)	> 100	> 100 µM (inactive)	> 100 µM (inactive)	> 100 µM (inactive)		> 100 µM (inactive)	> 100 µM (inactive)	> 100 µM (inactive)	> 100 µM (inactive)	> 100 µM (inactive)	> 100 µM (inactive)				
COC(=O)C1CCc2c1c(=O)n1c([nH]c3ccccc31)c2C#N (stereo unspecified)	> 100 µM (inactive)	> 100 µM (inactive)	> 100 µM (inactive)	> 100 µM (inactive)	> 100 µM (inactive)	> 100	> 100 µM (inactive)	> 100 µM (inactive)	> 100 µM (inactive)	> 100 µM (inactive)	> 100 µM (inactive)	> 100 µM (inactive)	> 100 µM (inactive)	> 100 µM (inactive)	> 100 µM (inactive)	> 100 µM (inactive)				
COc1ccc(CCNCCCC2c3ccccc3-c3ccccc32)cc1OC	6.68 µM (inactive)	7.16 µM (inactive)	12.9 µM (inactive)	16.1 µM (inactive)	13.6 µM (inactive)	14.8	7.48 µM (inactive)	16.7 µM (inactive)	15 µM (inactive)	12.6 µM (inactive)	16.1 µM (inactive)	1.86 µM (inactive)	7.33 µM (inactive)	6.3 µM (inactive)	4.09 µM (inactive)	16.6 µM (inactive)	20.1 µM (inactive)	17.2 µM (inactive)	16.3 µM (inactive)	
CC(C)NC(C)Cc1ccccc1 (stereo unspecified)	> 100 µM (inactive)	> 100 µM (inactive)	> 100 µM (inactive)	> 100 µM (inactive)	> 100 µM (inactive)	3.97	> 100 µM (inactive)	> 100 µM (inactive)	> 100 µM (inactive)	> 100 µM (inactive)	> 100 µM (inactive)	> 100 µM (inactive)	> 100 µM (inactive)	> 100 µM (inactive)	> 100 µM (inactive)	> 100 µM (inactive)				
COC(=O)/C(C)=C(/CCC1(C)OCCO1)O[Si](C)(C)C	> 100 µM (inactive)	47.1 µM (inactive)	> 100 µM (inactive)	> 100 µM (inactive)	> 100 µM (inactive)	> 100	> 100 µM (inactive)	> 100 µM (inactive)	> 100 µM (inactive)	> 100 µM (inactive)	> 100 µM (inactive)	> 100 µM (inactive)	> 100 µM (inactive)	> 100 µM (inactive)	> 100 µM (inactive)	> 100 µM (inactive)				
C[C@H]1C/C=C/[C@H]2[C@@H]3O[C@]3(C)[C@@H](C)[C@H]3[C@H](Cc4ccccc4)NC(=O)[C@]32OC(=O)O/C=C/[C@@](C)(O)C1=O [CYTOCHALASIN E]	0.393 µM (active)	0.0161 µM (active)	0.0188 µM (active)	0.0253 µM (active)	0.0251 µM (active)	0.0834	0.0548 µM (active)	0.0975 µM (active)	0.114 µM (active)		< 0.01 µM (active)		21.8 µM (inactive)	0.556 µM (active)	1.72 µM (inactive)	23.6 µM (inactive)	0.0171 µM (active)	5.69 µM (inactive)	0.0141 µM (active)	< 0.01 µM (active)
